Source: patent US9387219B2, “Edible composition” (Conopco, Inc., priority 2011, dated 2016)
Values joined by “and” are separate entries in the source; they are usually repeats but may differ in a detail not shown here. Equal values may be shown once.

Key:
SGLT1 = molecular target: T1, SGLT1 (Homo sapiens, UniProt P13866); experiment: Glucose transport inhibitor cell screening assay, 5 mM D-glucose for 15 minutes (SGLT1 inhibition); assay type: cell-based; details: for SGLT1 inhibitory activity (in words): Caco-2 cell model; for SGLT1 inhibitory activity (in words) / % Glucose Transport inhibition 5 mM / inhibition at 300 µM: 5 mM D-glucose; for Class (assigned class of transporter inhibited): assigned from % inhibition at 5 mM and 25 mM D-glucose in Caco-2 cells; for % Glucose Transport inhibition 5 mM / inhibition at 300 µM: differentiated Caco-2 monolayer, 15 minutes, active at 300 uM
T1 construct: endogenous in cells; host or cells: differentiated Caco-2 cell monolayers (ATCC)
T1 sequence (P13866 1-664): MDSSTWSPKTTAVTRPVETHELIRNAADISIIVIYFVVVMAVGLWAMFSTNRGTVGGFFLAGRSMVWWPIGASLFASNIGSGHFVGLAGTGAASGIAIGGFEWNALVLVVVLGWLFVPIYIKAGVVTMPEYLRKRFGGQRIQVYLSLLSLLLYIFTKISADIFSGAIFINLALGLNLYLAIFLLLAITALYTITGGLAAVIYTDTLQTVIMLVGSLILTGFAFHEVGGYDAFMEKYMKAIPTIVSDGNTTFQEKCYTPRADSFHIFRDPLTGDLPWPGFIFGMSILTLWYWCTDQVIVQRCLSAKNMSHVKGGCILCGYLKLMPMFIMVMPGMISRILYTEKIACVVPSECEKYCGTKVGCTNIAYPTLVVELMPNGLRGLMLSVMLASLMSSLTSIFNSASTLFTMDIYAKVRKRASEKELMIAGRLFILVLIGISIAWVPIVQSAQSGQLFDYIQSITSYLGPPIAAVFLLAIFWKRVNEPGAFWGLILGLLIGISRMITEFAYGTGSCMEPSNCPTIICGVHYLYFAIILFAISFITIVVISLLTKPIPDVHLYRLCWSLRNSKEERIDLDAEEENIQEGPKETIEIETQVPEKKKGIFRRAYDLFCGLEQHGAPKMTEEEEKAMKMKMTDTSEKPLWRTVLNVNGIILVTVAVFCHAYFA
Description: (§1) Human epithelial colorectal adenocarcinoma (Caco-2) cells were obtained from the American Type Culture Collection (ATCC) and cultured in Growth Medium consisting of Dulbecco's modified Eagle's medium (containing Glutamax-1, 4.5 g/L D-glucose and 25 mM 4-(2-hydroxyethyl)-1-piperazine ethanesulphonic acid (Hepes) (Invitrogen)), 10% foetal bovine serum (Sigma), 1% non-essential amino acids (Invitrogen) and 1 mM sodium pyruvate (Sigma)). The cells were routinely passaged at approximately 80% confluence using TrypLE™ Express Stable Trypsin-Like Enzyme (Invitrogen) to detach the cells, and seeded at approximately 114 cells per mm^2 in fresh tissue culture flasks. Only cells between the passage numbers 45 and 49 were used for experiments.
(§2) Corning® HTS Transwell® 96 well permeable insert supports (Sigma) were collagen coated with 40 μl of 50 μg/ml rat tail collagen type I (BD Biosciences) in 0.02 M acetic acid for one hour at room temperature under sterile conditions. The inserts were washed twice in phosphate buffered saline (PBS (Invitrogen)) and the Caco-2 cells seeded into the inserts at 9.6×10^5 cell/ml (75 μl per insert) in Growth Medium and 30 ml of Growth Medium added to the feeder plate below. The cells were left to attach to the collagen matrix and form monolayers over 48 hours at 37° C., 5% CO2. Both inserts and feeder plate were washed in PBS and the cells incubated with BD Entero-STIM™ Enterocyte Differentiation Medium containing MITO+™ Serum Extender solution (both BD Biosciences), 75 μl per insert and 30 ml in the feeder plate, for a further 48 hours at 37° C., 5% CO2.
(§3) Differentiated cell monolayers were washed gently in Dulbecco's Phosphate Buffered Saline containing CaCl2 and MgCl2 (PBS(+) (Invitrogen)) and the inserts transferred to a new Corning® HTS Transwell®-96 well receiver plate (Sigma). The cells were incubated with fresh PBS(+) (75 μl per insert and 225 μl per well) for 60 minutes at 37° C., 5% CO2. The PBS(+) was gently aspirated and replaced with 75 μl per insert of either 5 mM D-glucose (Sigma)±test active or 25 mM D-glucose±test active in triplicate and 225 μl per well of PBS(+) quickly added to each well. The 5 mM glucose wells and the 25 mM glucose wells were incubated at 37° C., 5% CO2 for 15 minutes and 30 minutes, respectively. Details of all the actives tested are found in table 1. The cell inserts were transferred to a new receiver plate, the supernatant gently aspirated from the cells and replaced with 100 μl of 100 μM of Lucifer Yellow (Sigma) solution to confirm the integrity of the monolayers. 225 μl of PBS(+) was added to each well and incubated at 37° C., 5% CO2 for 1 hour. The cell inserts were then discarded and the permeability of the membranes to Lucifer Yellow checked by measuring the fluorescence of the samples at 485 nm (excitation) and 530 nm (emission) on a Spectramax Gemini EM fluorescence microplate reader.
(§4) The amount of glucose transported across the cell monolayers was measured using a glucose assay based on Invitrogen's Amplex Red Glucose/Glucose oxidase Assay Kit. Briefly, 50 μl of each test sample was transferred to a black sided/clear bottom 96-well plate (Greiner Bio-One) to which 100 μl of reaction buffer (0.5 μl 10 mM Ampliflu Red, 1 μl 10 U/ml Horse Radish peroxidase, 1 μl 100 U/ml glucose oxidase and 97.5 μl PBS (all Sigma)) was added. After 10 minutes incubation at room temperature, the fluorescence of the samples were measured at 530 nm (excitation) and 590 nm (emission) on a Spectramax Gemini EM fluorescence microplate reader and the glucose concentration extrapolated from a standard curve.
(§5) At higher D-glucose concentrations, the SGLT1 transporter becomes saturated and consequently the majority of glucose transport across the monolayer is driven by the low affinity, high capacity GLUT2 transporter that is targeted to the apical membrane only following an initial SGLT1-dependent transport of glucose.

GLUT2 = molecular target: T2, GLUT2 (Homo sapiens, UniProt P11168); experiment: Glucose transport inhibitor cell screening assay, 25 mM D-glucose for 30 minutes (GLUT2 inhibition); assay type: cell-based; details: for % Glucose Transport inhibition 25 mM / inhibition at 150 µM: differentiated Caco-2 monolayer, 30 minutes, active at 150 uM
T2 construct: endogenous in cells; host or cells: differentiated Caco-2 cell monolayers (ATCC)
T2 sequence (P11168 1-524): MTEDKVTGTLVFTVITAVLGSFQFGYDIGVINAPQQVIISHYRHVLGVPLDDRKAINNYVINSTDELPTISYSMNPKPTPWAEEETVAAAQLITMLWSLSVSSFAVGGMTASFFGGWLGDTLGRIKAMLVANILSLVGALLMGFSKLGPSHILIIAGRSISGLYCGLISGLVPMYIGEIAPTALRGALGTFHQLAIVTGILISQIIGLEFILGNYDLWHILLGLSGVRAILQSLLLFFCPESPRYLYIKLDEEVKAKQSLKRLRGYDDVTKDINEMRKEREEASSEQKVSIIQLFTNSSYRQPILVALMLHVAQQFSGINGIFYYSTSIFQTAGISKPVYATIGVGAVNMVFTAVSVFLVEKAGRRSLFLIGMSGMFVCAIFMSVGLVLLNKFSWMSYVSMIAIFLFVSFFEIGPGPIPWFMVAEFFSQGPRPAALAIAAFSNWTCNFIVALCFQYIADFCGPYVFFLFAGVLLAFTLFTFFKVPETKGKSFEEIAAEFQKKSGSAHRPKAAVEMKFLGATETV
Description: as §1, §2, §3, §4, §5

[1] = molecular target: T3, Human Lactase Phloridzin Hydrolase (hLPH) (Homo sapiens, UniProt P09848); experiment: hLPH enzyme assay (glucoside hydrolysis by LPH extract from Caco-2 cells); assay type: in vitro ADME; details: for μM substrate hydrolysed/hr / Resistance to hydrolysis-% Q4G: glucoside 1.0 mM, 1 hour at 37° C.; for μM substrate hydrolysed/hr: 10% LPH extract (Caco2 cell-line), pH 6.0; for Resistance to hydrolysis-% Q4G: relative to Q4G, 10% LPH extract
T3 construct: endogenous in cells; host or cells: Caco-2 cells held at confluence for 21 days; trans-membrane protein extract passed through a G-25 Sephadex spin column
Description: Extracts were stored at −80° C. in 50 ul aliquots. Prior to use extracts were semi-purified, removing low molecular weight interfering components by passing through a small G-25 Sephadex 50-100 μl spin-column (Roche or ThermoFisher Scientific). 10 μl of semi-purified LPH extract was added to 90 μl of glucoside (1.0 mM final concentration) in 0.1 M maleate (Sigma) buffer, pH 6.0 and incubated for 60 minutes at 37° C. The reaction was terminated by addition of 200 μl 2M Tris (Sigma), pH 8.0. […] This allowed a full recovery of glucose which was measured using the Amplex® Red Glucose/Glucose Oxidase Assay. […] Fluorescence was read on a SpectraMax Gemini EM SN plate reader (Molecular Devices) (excitation. 530 nm and emission at 590 nm).

T3 sequence (P09848 869-1927): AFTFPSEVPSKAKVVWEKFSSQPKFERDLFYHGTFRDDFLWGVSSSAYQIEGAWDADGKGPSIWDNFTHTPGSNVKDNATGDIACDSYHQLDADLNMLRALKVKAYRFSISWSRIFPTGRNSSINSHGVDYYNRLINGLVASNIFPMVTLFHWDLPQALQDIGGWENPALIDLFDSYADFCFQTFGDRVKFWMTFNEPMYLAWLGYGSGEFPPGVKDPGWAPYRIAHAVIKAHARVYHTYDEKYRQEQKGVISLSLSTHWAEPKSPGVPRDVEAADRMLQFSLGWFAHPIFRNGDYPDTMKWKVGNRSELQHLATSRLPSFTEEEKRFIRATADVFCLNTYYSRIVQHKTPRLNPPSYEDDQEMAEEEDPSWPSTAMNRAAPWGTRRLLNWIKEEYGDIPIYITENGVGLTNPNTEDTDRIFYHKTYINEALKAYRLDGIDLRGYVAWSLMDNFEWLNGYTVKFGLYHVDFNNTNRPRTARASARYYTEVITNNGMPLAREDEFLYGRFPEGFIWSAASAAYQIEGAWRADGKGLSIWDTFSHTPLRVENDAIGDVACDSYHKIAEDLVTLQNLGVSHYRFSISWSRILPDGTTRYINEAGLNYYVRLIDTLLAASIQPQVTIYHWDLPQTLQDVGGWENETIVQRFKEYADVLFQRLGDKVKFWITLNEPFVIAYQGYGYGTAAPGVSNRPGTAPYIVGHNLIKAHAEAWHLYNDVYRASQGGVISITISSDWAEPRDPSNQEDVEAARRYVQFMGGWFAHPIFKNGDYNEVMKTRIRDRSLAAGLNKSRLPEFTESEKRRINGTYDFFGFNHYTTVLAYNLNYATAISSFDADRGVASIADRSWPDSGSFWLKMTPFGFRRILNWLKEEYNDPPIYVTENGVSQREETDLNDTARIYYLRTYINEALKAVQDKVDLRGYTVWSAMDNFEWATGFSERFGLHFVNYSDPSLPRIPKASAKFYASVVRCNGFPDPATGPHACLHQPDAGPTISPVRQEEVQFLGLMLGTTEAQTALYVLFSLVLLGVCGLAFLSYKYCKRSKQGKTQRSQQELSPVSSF

SMILES | SGLT1 inhibitory activity (in words) (SGLT1) | Class (assigned class of transporter inhibited) (SGLT1) | % Glucose Transport inhibition 25 mM (GLUT2) | μM substrate hydrolysed/hr [1] | % Glucose Transport inhibition 5 mM (SGLT1) | Resistance to hydrolysis-% Q4G [1] | other results
O=C1CC(c2ccc(O)cc2)Oc2cc(O[C@@H]3O[C@H](CO)[C@@H](O)[C@H](O)[C@H]3O)cc(O)c21 (stereo partly drawn) [Naringenin-7-O-glucoside] | inhibition of SGLT1 | SGLT1 | 0.06% | 1.564 μM substrate hydrolysed/hr | – | – | Resistance to hydrolysis-% Q4G ([1]; listed as N7G): 49.5% and 49.52%
O=c1c(O)c(-c2ccc(O[C@@H]3O[C@H](CO)[C@@H](O)[C@H](O)[C@H]3O)c(O)c2)oc2cc(O)cc(O)c12 [Quercetin-4-glucoside, reference compound] | inhibition of SGLT1 | SGLT1 | – | – | – | – | degradation by hLPH (in words) ([1]; Caco-2): highest degree of degradation by hLPH
O=c1c(O[C@@H]2O[C@H](CO)[C@@H](O)[C@H](O)[C@H]2O)c(-c2ccc(O)c(O)c2)oc2cc(O)cc(O)c12 [Quercetin-3-glucoside] | inhibition of SGLT1 | SGLT1 | – | 0.178 μM substrate hydrolysed/hr | – | – | –
O=c1c(O[C@@H]2O[C@H](CO)[C@@H](O)[C@H](O)[C@H]2O)c(-c2ccc(O)cc2)oc2cc(O)cc(O)c12 [Kaempferol 3-O-glucoside] | inhibition of SGLT1 | SGLT1 | – | 0.224 μM substrate hydrolysed/hr | – | – | Resistance to hydrolysis-% Q4G ([1]; listed as K3G): 92.8% and 92.78%
O=c1cc(-c2ccc(O)c(O)c2)oc2cc(O[C@@H]3O[C@H](CO)[C@@H](O)[C@H](O)[C@H]3O)cc(O)c12 [Luteolin-7-glucoside] | inhibition of SGLT1 | SGLT1 | 17.03% | 0.814 μM substrate hydrolysed/hr | 44.09% | 73.72% | –
O=c1cc(-c2ccc(O)cc2)oc2c([C@@H]3O[C@H](CO)[C@@H](O)[C@H](O)[C@H]3O)c(O)cc(O)c12 [Apigenin-8-C-glucoside] | inhibition of SGLT1 | SGLT1 | 5.76% | 0.685 μM substrate hydrolysed/hr | 33.84% | 77.90% | –
O=C(CCc1ccc(O)cc1)c1c(O)cc(O)cc1O[C@@H]1O[C@H](CO)[C@@H](O)[C@H](O)[C@H]1O [Phloridzin, reference compound] | – | – | – | 0.507 μM substrate hydrolysed/hr | – | 83.64% | –
O=c1c(O)c(-c2ccc(O)cc2)oc2cc(O[C@@H]3O[C@H](CO)[C@@H](O)[C@H](O)[C@H]3O)cc(O)c12 [Kaempferol 7-O-glucoside] | inhibition of SGLT1 | SGLT1 | 14.42% | 0.618 μM substrate hydrolysed/hr | 43.89% | 80.05% | –
OC[C@H]1O[C@@H](Oc2cc3c(O)cc(O)cc3[o+]c2-c2ccc(O)cc2)[C@H](O)[C@@H](O)[C@@H]1O [Pelargonidin-3-glucoside] | inhibition of SGLT1 | SGLT1 | – | 1.272 μM substrate hydrolysed/hr | – | 58.94% | –
O=c1c(O)c(-c2cc(O)c(O)c(O)c2)oc2cc(O)cc(O)c12 [Myricetin] | – | GLUT2 (GLUT2 inhibitors having ≧20% inhibition at both 5 mM and 25 mM D-glucose levels) | – | – | – | – | inhibition at 300 µM (SGLT1): 76.8%; inhibition at 150 µM (GLUT2): 55%
O=C(O)/C=C/c1ccc(O)c(O)c1 [caffeic acid] | no inhibitory activity | – | – | – | – | – | GLUT2 inhibitory activity (in words) (GLUT2; Caco-2 cell model): no inhibitory activity
O=c1c(O)c(-c2ccc(O)c(O)c2)oc2cc(O)cc(O)c12 [Quercetin] | – | GLUT2 (GLUT2 inhibitors having ≧20% inhibition at both 5 mM and 25 mM D-glucose levels) | – | – | – | – | inhibition at 300 µM (SGLT1): 80.8%; inhibition at 150 µM (GLUT2): 61.4%
O=c1c(-c2ccc(O)cc2)coc2cc(O[C@@H]3O[C@H](CO)[C@@H](O)[C@H](O)[C@H]3O)ccc12 [Daidzein-7-glucoside] | inhibition of SGLT1 | SGLT1 | 7.23% | – | 35.03% | – | –
